{"source": "PubChem BioAssay (NCI)", "test_in_all_cases": "inhibition of tumour cell growth, NCI panel, 48 h", "key": {"786-0 renal": {"system": "786-0 renal"}, "A498 renal": {"system": "A498 renal"}, "A549 NSCLC": {"system": "A549 NSCLC"}, "ACHN renal": {"system": "ACHN renal"}, "BT-549 breast": {"system": "BT-549 breast"}, "CAKI-1 renal": {"system": "CAKI-1 renal"}, "CCRF-CEM leukemia": {"system": "CCRF-CEM leukemia"}, "COLO 205 colon": {"system": "COLO 205 colon"}, "DU-145 prostate": {"system": "DU-145 prostate"}, "EKVX NSCLC": {"system": "EKVX NSCLC"}, "HCC-2998 colon": {"system": "HCC-2998 colon"}, "HCT-116 colon": {"system": "HCT-116 colon"}, "HCT-15 colon": {"system": "HCT-15 colon"}, "HL-60(TB) leukemia": {"system": "HL-60(TB) leukemia"}, "HOP-62 NSCLC": {"system": "HOP-62 NSCLC"}, "HOP-92 NSCLC": {"system": "HOP-92 NSCLC"}, "HS 578T breast": {"system": "HS 578T breast"}, "HT29 colon": {"system": "HT29 colon"}, "IGROV1 ovarian": {"system": "IGROV1 ovarian"}, "K-562 leukemia": {"system": "K-562 leukemia"}, "KM12 colon": {"system": "KM12 colon"}, "LOX IMVI melanoma": {"system": "LOX IMVI melanoma"}, "M14 melanoma": {"system": "M14 melanoma"}, "MALME-3M melanoma": {"system": "MALME-3M melanoma"}, "MCF7 breast": {"system": "MCF7 breast"}, "MDA-MB-231 breast": {"system": "MDA-MB-231 breast"}, "MDA-MB-435": {"system": "MDA-MB-435"}, "MOLT-4 leukemia": {"system": "MOLT-4 leukemia"}, "NCI-H226 lung": {"system": "NCI-H226 lung"}}, "note": "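Grown in 96-well plates, cells were treated for 48 hours with each compound at five concentrations. Insufficient inhibition: endpoint recorded as highest concentration tested. GI50 = concentration required for 50% inhibition of growth. TGI: total growth inhibition.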"}
{"smiles": "CC(=O)Oc1ccc(C23c4ccccc4C2(OC(C)=O)c2cc(OC(C)=O)ccc23)cc1", "note": "(stereo not drawn)", "values": [{"measurement": "GI50", "setting": "786-0 renal", "value": 6.56, "unit": "µM"}, {"measurement": "TGI", "setting": "786-0 renal", "value": 20.5, "unit": "µM"}, {"measurement": "GI50", "setting": "A498 renal", "value": 34.8, "unit": "µM"}, {"measurement": "TGI", "setting": "A498 renal", "value": "> 100", "unit": "µM"}, {"measurement": "GI50", "setting": "A549 NSCLC", "value": 17.6, "unit": "µM"}, {"measurement": "TGI", "setting": "A549 NSCLC", "value": 70.2, "unit": "µM"}, {"measurement": "GI50", "setting": "ACHN renal", "value": 1.94, "unit": "µM"}, {"measurement": "TGI", "setting": "ACHN renal", "value": 5.4, "unit": "µM"}, {"measurement": "GI50", "setting": "BT-549 breast", "value": 2.76, "unit": "µM"}, {"measurement": "TGI", "setting": "BT-549 breast", "value": 6.49, "unit": "µM"}, {"measurement": "GI50", "setting": "CAKI-1 renal", "value": 4.08, "unit": "µM"}, {"measurement": "TGI", "setting": "CAKI-1 renal", "value": 17.2, "unit": "µM"}, {"measurement": "GI50", "setting": "CCRF-CEM leukemia", "value": 3.05, "unit": "µM"}, {"measurement": "TGI", "setting": "CCRF-CEM leukemia", "value": 12.4, "unit": "µM"}, {"measurement": "GI50", "setting": "COLO 205 colon", "value": 14.5, "unit": "µM"}, {"measurement": "TGI", "setting": "COLO 205 colon", "value": 29.1, "unit": "µM"}, {"measurement": "GI50", "setting": "DU-145 prostate", "value": 6.88, "unit": "µM"}, {"measurement": "TGI", "setting": "DU-145 prostate", "value": 20.7, "unit": "µM"}, {"measurement": "GI50", "setting": "EKVX NSCLC", "value": 3.52, "unit": "µM"}, {"measurement": "TGI", "setting": "EKVX NSCLC", "value": 16.6, "unit": "µM"}, {"measurement": "GI50", "setting": "HCC-2998 colon", "value": 2.91, "unit": "µM"}, {"measurement": "TGI", "setting": "HCC-2998 colon", "value": 8.46, "unit": "µM"}, {"measurement": "GI50", "setting": "HCT-116 colon", "value": 3.56, "unit": "µM"}, {"measurement": "TGI", "setting": "HCT-116 colon", "value": 12.7, "unit": "µM"}, {"measurement": "GI50", "setting": "HCT-15 colon", "value": 3.81, "unit": "µM"}, {"measurement": "TGI", "setting": "HCT-15 colon", "value": 17.7, "unit": "µM"}, {"measurement": "GI50", "setting": "HL-60(TB) leukemia", "value": 2.41, "unit": "µM"}, {"measurement": "TGI", "setting": "HL-60(TB) leukemia", "value": 6.72, "unit": "µM"}, {"measurement": "GI50", "setting": "HOP-62 NSCLC", "value": 8.78, "unit": "µM"}, {"measurement": "TGI", "setting": "HOP-62 NSCLC", "value": 34.5, "unit": "µM"}, {"measurement": "GI50", "setting": "HOP-92 NSCLC", "value": 5.01, "unit": "µM"}, {"measurement": "TGI", "setting": "HOP-92 NSCLC", "value": 20.3, "unit": "µM"}, {"measurement": "GI50", "setting": "HS 578T breast", "value": 2.93, "unit": "µM"}, {"measurement": "TGI", "setting": "HS 578T breast", "value": "> 100", "unit": "µM"}, {"measurement": "GI50", "setting": "HT29 colon", "value": 39.7, "unit": "µM"}, {"measurement": "TGI", "setting": "HT29 colon", "value": "> 100", "unit": "µM"}, {"measurement": "GI50", "setting": "IGROV1 ovarian", "value": 5.86, "unit": "µM"}, {"measurement": "TGI", "setting": "IGROV1 ovarian", "value": 27.2, "unit": "µM"}, {"measurement": "GI50", "setting": "K-562 leukemia", "value": 4.04, "unit": "µM"}, {"measurement": "TGI", "setting": "K-562 leukemia", "value": "> 100", "unit": "µM"}, {"measurement": "GI50", "setting": "KM12 colon", "value": 3.34, "unit": "µM"}, {"measurement": "TGI", "setting": "KM12 colon", "value": 11.2, "unit": "µM"}, {"measurement": "GI50", "setting": "LOX IMVI melanoma", "value": 3.48, "unit": "µM"}, {"measurement": "TGI", "setting": "LOX IMVI melanoma", "value": 12.8, "unit": "µM"}, {"measurement": "GI50", "setting": "M14 melanoma", "value": 14, "unit": "µM"}, {"measurement": "TGI", "setting": "M14 melanoma", "value": 32.1, "unit": "µM"}, {"measurement": "GI50", "setting": "MALME-3M melanoma", "value": 9.61, "unit": "µM"}, {"measurement": "TGI", "setting": "MALME-3M melanoma", "value": 27.3, "unit": "µM"}, {"measurement": "GI50", "setting": "MCF7 breast", "value": 16.6, "unit": "µM"}, {"measurement": "TGI", "setting": "MCF7 breast", "value": "> 100", "unit": "µM"}, {"measurement": "GI50", "setting": "MDA-MB-231 breast", "value": 6, "unit": "µM"}, {"measurement": "TGI", "setting": "MDA-MB-231 breast", "value": 33.1, "unit": "µM"}, {"measurement": "GI50", "setting": "MDA-MB-435", "value": 4.9, "unit": "µM"}, {"measurement": "TGI", "setting": "MDA-MB-435", "value": 25.6, "unit": "µM"}, {"measurement": "GI50", "setting": "MOLT-4 leukemia", "value": 7.27, "unit": "µM"}, {"measurement": "TGI", "setting": "MOLT-4 leukemia", "value": 72.2, "unit": "µM"}, {"measurement": "GI50", "setting": "NCI-H226 lung", "value": 20.4, "unit": "µM"}, {"measurement": "TGI", "setting": "NCI-H226 lung", "value": 63.2, "unit": "µM"}]}
